According to ChEMBL document CHEMBL3994677, “Discovery of GSK2193874: An Orally Active, Potent, and Selective Blocker of Transient Receptor Potential Vanilloid 4” (ACS Med Chem Lett, 2017):
Calls of active or inactive are those of the source. No cut-off for these calls is given here.

Experiments:
[1] = target: Transient receptor potential cation channel subfamily V member 4 (Rattus norvegicus, UniProt Q9ERZ8); assay: Antagonist activity at rat TRPV4 expressed in HEK293 cells assessed as inhibition of GSK634775A-induced calcium influx preincubated for 10 mins followed by GSK634775A addition by […] dye based FLIPR assay; format: cell-based
[2] = target: Transient receptor potential cation channel subfamily V member 4 (Homo sapiens, UniProt Q9HBA0); assay: Antagonist activity at human TRPV4 expressed in HEK293 cells assessed as inhibition of GSK634775A-induced calcium influx preincubated for 10 mins followed by GSK634775A addition by […] dye based FLIPR assay; format: cell-based
[3] = Cmax in Beagle dog at 1 mg/kg, iv administered as infusion; format: ADME, organism-based, Canis lupus familiaris; design: dose 1 mg/kg, route intravenous; details: in vivo
[4] = target: Voltage-gated inwardly rectifying potassium channel KCNH2 (Homo sapiens, UniProt Q12809); assay: Inhibition of human ERG by patchXpress electrophysiology assay
Canis familiaris [5] = assay: Toxicity in Beagle dog assessed as QTc prolongation at 1 to 3 mg/kg, iv administered as infusion; format: organism-based, Canis lupus familiaris; details: in vivo
[6] = target: Voltage-dependent L-type calcium channel subunit alpha-1C (Homo sapiens, UniProt Q13936); assay: Inhibition of Cav1.2 (unknown origin) by patchXpress electrophysiology assay
[7] = target: T1, Voltage-dependent L-type calcium channel subunit alpha-1C (Cavia porcellus, UniProt O35505); assay: Inhibition of Cav1.2 in guinea pig ventricular myocytes assessed as decrease in current amplitude at 2 Hz by patch clamp method; format: cell-based
Mus musculus [8] = assay: Toxicity in TRPV4 knockout Balb/c mouse assessed as reduction in BP at 30 mg/kg, iv administered as infusion; format: organism-based; details: in vivo
Aorta = assay: Toxicity in mouse isolated aorta assessed as effect on contractility; format: tissue-based; details: in vivo
Neuromedin-K receptor = Neuromedin-K receptor (Homo sapiens, UniProt P29371); assay: Inhibition of NK3 receptor (unknown origin) by FLIPR assay
[9] = target: Voltage-dependent T-type calcium channel subunit alpha-1H (Homo sapiens) (UniProt O95180); assay: Inhibition of Cav3.2 (unknown origin)
Canis familiaris [10] = assay: Toxicity in Beagle dog assessed as effect on LV function at 3 mg/kg, iv administered as infusion; format: organism-based, Canis lupus familiaris; details: in vivo
Canis familiaris [11] = assay: Toxicity in Beagle dog assessed as effect on cardiac output at 3 mg/kg, iv administered as infusion; format: organism-based, Canis lupus familiaris; details: in vivo
Canis familiaris [12] = assay: Toxicity in Beagle dog assessed as reduction in heart rate at 3 mg/kg, iv administered as infusion; format: organism-based, Canis lupus familiaris; details: in vivo
Substance-K receptor = Substance-K receptor (Homo sapiens, UniProt P21452); assay: Inhibition of NK2 receptor (unknown origin) by FLIPR assay
Canis familiaris [13] = assay: Unbound plasma concentration in Beagle dog at 3 mg/kg, iv administered as infusion; details: in vivo
[14] = Oral bioavailability in Sprague-Dawley rat; format: ADME, organism-based; details: in vivo
[15] = Cardiotoxicity in rabbit ventricular wedge; format: toxicity, Oryctolagus cuniculus
Canis familiaris [16] = assay: Toxicity in Beagle dog assessed as reduction in BP at 3 mg/kg, iv administered as infusion; format: organism-based, Canis lupus familiaris; details: in vivo
Plasma = assay: Terminal plasma concentration in TRPV4 knockout Balb/c mouse at 30 mg/kg, iv administered as infusion; format: ADME, organism-based; details: in vivo, read-out: Cp(T)
[17] = target: Sodium channel protein type 5 subunit alpha (Homo sapiens, UniProt Q14524); assay: Inhibition of Nav1.5 (unknown origin) by ionworks quattro electrophysiology assay
[18] = Toxicity in mouse isolated right atria assessed as effect on contractility; design: species or system Right cardiac atrium; details: in vivo
Rattus norvegicus = assay: Dose normalized AUC in po dosed Sprague-Dawley rat; format: ADME, organism-based; details: in vivo
Canis familiaris [19] = assay: Unbound plasma concentration in Beagle dog at 1 mg/kg, iv administered as infusion; details: in vivo
[20] = Cmax in Beagle dog at 3 mg/kg, iv administered as infusion; format: ADME, organism-based, Canis lupus familiaris; design: dose 3 mg/kg, route intravenous; details: in vivo
[21] = Clearance in Sprague-Dawley rat; format: ADME; details: in vivo
[22] = target: Voltage-dependent N-type calcium channel subunit alpha-1B (Homo sapiens) (UniProt Q00975); assay: Inhibition of Cav2.2 (unknown origin)
Canis familiaris [23] = assay: Toxicity in Beagle dog assessed as hemodynamic effect at 1 mg/kg, iv administered as infusion; format: organism-based, Canis lupus familiaris; details: in vivo
Mus musculus [24] = assay: Toxicity in TRPV4 knockout Balb/c mouse assessed as reduction in heart rate at 30 mg/kg, iv administered as infusion; format: organism-based; details: in vivo
[25] = target: T1, Voltage-dependent L-type calcium channel subunit alpha-1C; assay: Inhibition of Cav1.2 in guinea pig ventricular myocytes assessed as decrease in current amplitude at 0.1 Hz by patch clamp method; format: cell-based
[26] = target: Nuclear receptor subfamily 1 group I member 2 (Homo sapiens, UniProt O75469); assay: Activation of PXR (unknown origin); format: ADME

Transient receptor potential cation channel subfamily V member 4 (Rattus norvegicus, UniProt Q9ERZ8), sequence (Q9ERZ8 whole entry): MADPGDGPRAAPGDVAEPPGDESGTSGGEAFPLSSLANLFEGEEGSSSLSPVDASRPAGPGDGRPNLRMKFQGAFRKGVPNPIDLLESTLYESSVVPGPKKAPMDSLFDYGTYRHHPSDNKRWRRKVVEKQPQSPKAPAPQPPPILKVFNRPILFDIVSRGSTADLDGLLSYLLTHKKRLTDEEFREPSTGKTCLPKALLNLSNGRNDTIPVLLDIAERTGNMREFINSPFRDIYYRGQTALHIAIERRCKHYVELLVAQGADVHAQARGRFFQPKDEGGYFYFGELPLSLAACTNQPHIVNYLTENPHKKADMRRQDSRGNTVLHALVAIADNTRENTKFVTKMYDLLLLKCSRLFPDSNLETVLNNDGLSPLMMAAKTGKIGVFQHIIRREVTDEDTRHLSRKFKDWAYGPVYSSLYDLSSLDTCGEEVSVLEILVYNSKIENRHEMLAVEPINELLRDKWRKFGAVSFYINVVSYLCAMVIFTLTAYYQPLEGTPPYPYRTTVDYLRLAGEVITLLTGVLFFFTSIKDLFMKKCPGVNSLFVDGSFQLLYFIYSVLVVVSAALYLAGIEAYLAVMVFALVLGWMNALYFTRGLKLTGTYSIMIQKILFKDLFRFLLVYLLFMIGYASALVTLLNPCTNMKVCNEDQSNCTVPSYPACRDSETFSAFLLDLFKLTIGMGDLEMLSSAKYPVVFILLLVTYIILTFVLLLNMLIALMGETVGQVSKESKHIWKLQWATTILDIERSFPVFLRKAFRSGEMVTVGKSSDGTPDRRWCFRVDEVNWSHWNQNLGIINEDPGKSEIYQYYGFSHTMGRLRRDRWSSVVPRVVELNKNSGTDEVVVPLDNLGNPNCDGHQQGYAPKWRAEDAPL
T1 sequence (O35505 whole entry, the tested form may be a part): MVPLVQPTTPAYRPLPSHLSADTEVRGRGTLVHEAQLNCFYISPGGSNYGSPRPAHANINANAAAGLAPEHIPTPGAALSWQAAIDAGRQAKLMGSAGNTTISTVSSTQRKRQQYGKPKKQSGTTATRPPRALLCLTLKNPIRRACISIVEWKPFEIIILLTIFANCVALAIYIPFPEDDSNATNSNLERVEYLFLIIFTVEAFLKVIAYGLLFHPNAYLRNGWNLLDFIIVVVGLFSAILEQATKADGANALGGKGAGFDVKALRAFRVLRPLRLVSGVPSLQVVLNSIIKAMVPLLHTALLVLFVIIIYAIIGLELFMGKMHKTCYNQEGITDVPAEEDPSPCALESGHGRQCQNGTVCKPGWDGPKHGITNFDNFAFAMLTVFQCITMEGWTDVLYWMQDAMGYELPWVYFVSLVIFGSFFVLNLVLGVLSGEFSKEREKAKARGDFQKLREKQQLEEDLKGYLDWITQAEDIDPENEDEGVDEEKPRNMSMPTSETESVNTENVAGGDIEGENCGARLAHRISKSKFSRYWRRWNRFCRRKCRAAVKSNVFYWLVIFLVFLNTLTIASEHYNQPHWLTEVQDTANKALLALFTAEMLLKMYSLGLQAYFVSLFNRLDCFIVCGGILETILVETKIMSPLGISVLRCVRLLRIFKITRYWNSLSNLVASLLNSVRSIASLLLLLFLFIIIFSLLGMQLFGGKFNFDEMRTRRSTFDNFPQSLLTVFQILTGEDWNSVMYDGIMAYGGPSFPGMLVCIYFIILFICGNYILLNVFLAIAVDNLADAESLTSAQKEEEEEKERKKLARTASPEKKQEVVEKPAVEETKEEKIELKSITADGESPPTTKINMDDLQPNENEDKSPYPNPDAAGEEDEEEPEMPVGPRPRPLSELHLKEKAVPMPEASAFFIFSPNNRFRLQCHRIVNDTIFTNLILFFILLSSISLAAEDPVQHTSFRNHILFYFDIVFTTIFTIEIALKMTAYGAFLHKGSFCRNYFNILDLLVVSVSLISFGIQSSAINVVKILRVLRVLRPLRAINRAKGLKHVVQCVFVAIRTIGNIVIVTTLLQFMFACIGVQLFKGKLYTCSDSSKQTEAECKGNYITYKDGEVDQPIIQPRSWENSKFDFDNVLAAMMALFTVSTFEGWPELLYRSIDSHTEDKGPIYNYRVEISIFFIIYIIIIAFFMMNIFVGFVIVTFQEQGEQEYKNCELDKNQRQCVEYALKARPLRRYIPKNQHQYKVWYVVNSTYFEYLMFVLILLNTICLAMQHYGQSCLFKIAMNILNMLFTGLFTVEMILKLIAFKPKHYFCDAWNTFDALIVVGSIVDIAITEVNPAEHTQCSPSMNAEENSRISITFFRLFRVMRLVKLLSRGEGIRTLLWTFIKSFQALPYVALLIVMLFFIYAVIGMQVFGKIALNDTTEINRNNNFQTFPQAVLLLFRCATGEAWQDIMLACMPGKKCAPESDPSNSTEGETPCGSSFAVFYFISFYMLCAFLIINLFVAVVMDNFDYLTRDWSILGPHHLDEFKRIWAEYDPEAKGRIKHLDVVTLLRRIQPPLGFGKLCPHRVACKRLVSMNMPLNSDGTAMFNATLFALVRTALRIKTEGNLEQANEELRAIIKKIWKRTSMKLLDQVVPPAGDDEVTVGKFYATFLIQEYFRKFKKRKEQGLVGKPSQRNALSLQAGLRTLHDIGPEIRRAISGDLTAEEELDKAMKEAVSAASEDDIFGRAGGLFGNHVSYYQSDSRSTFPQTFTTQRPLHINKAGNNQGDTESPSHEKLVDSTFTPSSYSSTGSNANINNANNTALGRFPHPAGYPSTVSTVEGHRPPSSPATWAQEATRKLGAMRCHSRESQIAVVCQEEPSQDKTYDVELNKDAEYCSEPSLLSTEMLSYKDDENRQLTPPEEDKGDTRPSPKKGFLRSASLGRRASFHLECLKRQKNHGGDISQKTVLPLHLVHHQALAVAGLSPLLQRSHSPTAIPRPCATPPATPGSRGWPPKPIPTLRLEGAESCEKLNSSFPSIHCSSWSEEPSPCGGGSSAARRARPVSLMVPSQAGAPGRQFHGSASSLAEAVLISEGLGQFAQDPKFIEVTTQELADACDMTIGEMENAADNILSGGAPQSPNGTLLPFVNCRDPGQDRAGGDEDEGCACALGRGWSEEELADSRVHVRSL
Transient receptor potential cation channel subfamily V member 4 (Homo sapiens, UniProt Q9HBA0), sequence (Q9HBA0 whole entry, the tested form may be a part): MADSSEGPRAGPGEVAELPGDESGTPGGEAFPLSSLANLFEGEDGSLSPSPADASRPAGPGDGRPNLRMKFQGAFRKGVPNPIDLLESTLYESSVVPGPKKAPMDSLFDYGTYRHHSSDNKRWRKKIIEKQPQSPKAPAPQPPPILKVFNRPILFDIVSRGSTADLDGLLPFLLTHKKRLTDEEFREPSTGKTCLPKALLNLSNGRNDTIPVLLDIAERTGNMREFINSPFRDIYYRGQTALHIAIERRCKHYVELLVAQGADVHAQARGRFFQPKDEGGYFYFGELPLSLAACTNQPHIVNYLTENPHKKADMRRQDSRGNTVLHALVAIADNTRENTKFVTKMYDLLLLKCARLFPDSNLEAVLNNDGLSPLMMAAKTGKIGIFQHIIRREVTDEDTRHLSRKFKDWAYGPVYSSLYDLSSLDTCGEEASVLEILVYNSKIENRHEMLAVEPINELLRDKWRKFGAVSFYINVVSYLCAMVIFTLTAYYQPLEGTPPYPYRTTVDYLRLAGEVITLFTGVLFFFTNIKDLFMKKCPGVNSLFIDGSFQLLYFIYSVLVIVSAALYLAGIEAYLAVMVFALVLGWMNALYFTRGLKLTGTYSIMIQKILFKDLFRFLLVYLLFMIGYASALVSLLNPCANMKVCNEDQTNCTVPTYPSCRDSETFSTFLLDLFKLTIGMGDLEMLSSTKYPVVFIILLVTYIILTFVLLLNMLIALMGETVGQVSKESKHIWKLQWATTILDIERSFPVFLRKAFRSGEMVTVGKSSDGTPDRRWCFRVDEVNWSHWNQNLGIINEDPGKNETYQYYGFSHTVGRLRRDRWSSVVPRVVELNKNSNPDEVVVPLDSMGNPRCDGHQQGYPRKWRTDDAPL
Substance-K receptor, sequence (P21452 whole entry, the tested form may be a part): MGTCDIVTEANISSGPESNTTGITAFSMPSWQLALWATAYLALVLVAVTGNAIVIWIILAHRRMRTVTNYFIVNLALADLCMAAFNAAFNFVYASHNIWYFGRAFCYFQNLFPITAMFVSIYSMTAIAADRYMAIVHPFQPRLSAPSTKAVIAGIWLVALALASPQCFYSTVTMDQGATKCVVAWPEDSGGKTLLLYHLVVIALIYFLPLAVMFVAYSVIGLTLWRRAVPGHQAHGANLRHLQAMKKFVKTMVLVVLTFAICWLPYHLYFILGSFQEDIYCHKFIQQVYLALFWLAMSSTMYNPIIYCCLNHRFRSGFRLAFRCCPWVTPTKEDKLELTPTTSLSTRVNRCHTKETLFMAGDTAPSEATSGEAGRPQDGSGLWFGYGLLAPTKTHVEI
Neuromedin-K receptor, sequence (P29371 whole entry): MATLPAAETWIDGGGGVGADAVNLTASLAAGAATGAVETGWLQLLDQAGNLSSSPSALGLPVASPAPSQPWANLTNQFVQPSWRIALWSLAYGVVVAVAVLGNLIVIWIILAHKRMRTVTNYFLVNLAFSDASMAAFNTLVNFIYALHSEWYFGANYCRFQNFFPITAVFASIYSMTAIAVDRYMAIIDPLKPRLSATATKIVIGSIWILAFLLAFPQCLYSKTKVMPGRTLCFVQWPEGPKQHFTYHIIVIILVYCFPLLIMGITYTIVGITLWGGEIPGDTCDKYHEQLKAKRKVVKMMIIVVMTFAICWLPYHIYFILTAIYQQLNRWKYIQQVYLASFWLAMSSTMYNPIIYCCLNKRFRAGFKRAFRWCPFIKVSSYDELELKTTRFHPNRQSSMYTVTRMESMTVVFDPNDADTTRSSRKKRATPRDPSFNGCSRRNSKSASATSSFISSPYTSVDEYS

SMILES: O=C(N[C@H](c1ccccc1)C(F)(F)F)c1c(CN2CCC(N3CCCCC3)CC2)c(-c2cccc(C(F)(F)F)c2)nc2ccccc12
- IC50 [1]: 2.5 nM
- IC50 [2]: 40 nM

SMILES: C[C@H](NC(=O)c1c(CN2CCC(N3CCCCC3)CC2)c(-c2cccc(C(F)(F)F)c2)nc2ccccc12)c1ccccc1
- Cmax [3]: 7 µM
- IC50 [4]: 1200 nM
- Activity (Canis familiaris [5]): Toxic
- IC50 [6]: 4500 nM
- IC50 [1]: 2.5 nM
- IC30 [7]: 120 nM
- Activity (Mus musculus [8]): Toxic
- Activity (Aorta): Non-Toxic
- IC50 (Neuromedin-K receptor): 2500 nM
- inhibition [9]: inactive
- Activity (Canis familiaris [10]): Toxic
- IC50 [2]: 80 nM
- Activity (Canis familiaris [11]): Toxic
- Activity (Canis familiaris [12]): Toxic
- IC50 (Substance-K receptor): 1300 nM
- unbound plasma concentration (Canis familiaris [13]): 0.94 µM
- bioavailability [14]: 100%
- Activity [15]: Non-Toxic
- Activity (Canis familiaris [16]): Toxic
- concentration (Plasma): 10 to 11 µM
- IC50 [17]: 40000 nM
- Activity [18]: Non-Toxic
- AUC/dose (Rattus norvegicus): 0.8 µg·h/mL/mg/kg
- unbound plasma concentration (Canis familiaris [19]): 0.3 µM
- Cmax [20]: 20 µM
- clearance [21]: 25 mL/min/kg
- inhibition [22]: inactive
- Activity (Canis familiaris [23]): Non-Toxic
- Activity (Mus musculus [24]): Toxic
- IC30 [25]: 1700 nM

SMILES: O=C(NC1(c2ccccc2)CC1)c1c(CN2CCC(N3CCCCC3)CC2)c(-c2cccc(C(F)(F)F)c2)nc2ccccc12
- IC50 [1]: 2.5 nM
- IC50 [2]: 50 nM

SMILES: C[C@H](NC(=O)c1c(CN2CCC(N3CCCCC3)CC2)c(-c2ccc(C(F)(F)F)cc2)nc2ccccc12)c1ccccc1
- IC50 [1]: 16 nM
- IC50 [2]: 400 nM

SMILES: CCOc1ccc2c(C(=O)N[C@H](c3ccccc3)C(F)(F)F)c(CN3CCC(N4CCCCC4)CC3)c(-c3cccc(C(F)(F)F)c3)nc2c1
- IC50 [1]: 3.2 nM
- EC50 [26]: 1300 nM
- IC30 [7]: 12000 nM
- IC50 [2]: 10 nM
- IC30 [25]: 10000 nM

SMILES: C[C@H](NC(=O)c1c(CN2CCC(N(C)C)CC2)c(-c2cccc(C(F)(F)F)c2)nc2ccccc12)c1ccccc1
- IC50 [1]: 320 nM
- IC50 [2]: 2510 nM

SMILES: C[C@H](NC(=O)c1c(CN2CCC(N3CCCCC3)CC2)c(-c2cccc(Cl)c2)nc2ccccc12)c1ccccc1
- IC50 [1]: 8 nM
- IC50 [2]: 200 nM

SMILES: O=C(N[C@H](c1ccccc1)C(F)(F)F)c1c(CN2CCC(N3CCCCC3)CC2)c(-c2cccc(C(F)(F)F)c2)nc2cc(Br)ccc12
- IC50 [1]: 3.2 nM
- IC50 [2]: 60 nM

SMILES: C[C@@H](NC(=O)c1c(CN2CCC(N3CCCCC3)CC2)c(-c2ccccc2)nc2ccccc12)c1ccccc1
- IC50 [1]: 630 nM
- IC50 [2]: 2000 nM

SMILES: C[C@H](NC(=O)c1c(CN2CCC(N3CCCCC3)CC2)c(-c2ccccc2)nc2ccccc12)c1ccccc1
- IC50 [1]: 320 nM
- IC50 (Neuromedin-K receptor): 8 nM
- IC50 [2]: 2000 nM
- IC50 (Substance-K receptor): 100 nM
- clearance [21]: 52 mL/min/kg

SMILES: COc1ccc2c(C(=O)NC3(c4ccccc4)CC3)c(CN3CCC(N4CCCCC4)CC3)c(-c3cccc(C(F)(F)F)c3)nc2c1
- IC50 [1]: 2.5 nM
- IC50 [2]: 250 nM

SMILES: C[C@H](NC(=O)c1c(CN2CCC(N3CCCCC3)CC2)c(-c2ccc(Cl)cc2)nc2ccccc12)c1ccccc1
- IC50 [1]: 16 nM
- IC50 [2]: 320 nM

SMILES: C[C@H](NC(=O)c1c(CN2CCC(C3CCCCC3)CC2)c(-c2cccc(C(F)(F)F)c2)nc2ccccc12)c1ccccc1
- IC50 [1]: > 25000 nM
- IC50 [2]: > 25000 nM

SMILES: CC(C)[C@H](NC(=O)c1c(CN2CCC(N3CCCCC3)CC2)c(-c2cccc(C(F)(F)F)c2)nc2ccccc12)c1ccccc1
- IC50 [1]: 25 nM
- IC50 [2]: 130 nM

SMILES: COc1cccc(-c2nc3ccccc3c(C(=O)N[C@@H](C)c3ccccc3)c2CN2CCC(N3CCCCC3)CC2)c1
- IC50 [1]: 630 nM
- IC50 [2]: 3980 nM

SMILES: C[C@@H](NC(=O)c1c(CN2CCC(N3CCCCC3)CC2)c(-c2cccc(C(F)(F)F)c2)nc2ccccc12)c1ccccc1
- IC50 [1]: 400 nM
- IC50 [2]: 2000 nM

SMILES: Cc1cccc(-c2nc3ccccc3c(C(=O)N[C@@H](C)c3ccccc3)c2CN2CCC(N3CCCCC3)CC2)c1
- IC50 [1]: 13 nM
- IC50 [2]: 500 nM

SMILES: O=C(N[C@@H](c1ccccc1)C(F)(F)F)c1c(CN2CCC(N3CCCCC3)CC2)c(-c2cccc(C(F)(F)F)c2)nc2ccccc12
- IC50 [1]: 8 nM
- IC50 [2]: 100 nM

SMILES: COc1ccc(-c2nc3ccccc3c(C(=O)N[C@@H](C)c3ccccc3)c2CN2CCC(N3CCCCC3)CC2)cc1
- IC50 [1]: 320 nM
- IC50 [2]: 5010 nM

SMILES: CCOc1ccc2c(C(=O)NC3(c4ccccc4)CC3)c(CN3CCC(N4CCCCC4)CC3)c(-c3cccc(C(F)(F)F)c3)nc2c1
- IC50 [1]: 1.6 nM
- IC50 [2]: 80 nM

SMILES: O=C(N[C@H](c1ccccc1)C(F)(F)F)c1c(CN2CCC(N3CCCCC3)CC2)c(-c2cccc(C(F)(F)F)c2)nc2ccc(Br)cc12
- IC50 [1]: 2.5 nM
- IC50 [2]: 60 nM

SMILES: COc1ccc2c(C(=O)N[C@H](c3ccccc3)C(F)(F)F)c(CN3CCC(N4CCCCC4)CC3)c(-c3cccc(C(F)(F)F)c3)nc2c1
- IC50 [1]: 4 nM
- IC50 [2]: 50 nM

SMILES: C[C@H](NC(=O)c1c(CN2CCCCC2)c(-c2cccc(C(F)(F)F)c2)nc2ccccc12)c1ccccc1
- IC50 [1]: > 25000 nM
- IC50 [2]: > 25000 nM

SMILES: O=C(NCc1ccccc1)c1c(CN2CCC(N3CCCCC3)CC2)c(-c2cccc(C(F)(F)F)c2)nc2ccccc12
- IC50 [1]: 50 nM
- IC50 [2]: 500 nM

SMILES: C[C@H](NC(=O)c1c(CN2CCC(N3CCOCC3)CC2)c(-c2cccc(C(F)(F)F)c2)nc2ccccc12)c1ccccc1
- IC50 [1]: 4 nM
- IC50 [2]: 50 nM

SMILES: CC[C@H](NC(=O)c1c(CN2CCC(N3CCCCC3)CC2)c(-c2cccc(C(F)(F)F)c2)nc2ccccc12)c1ccccc1
- IC50 [1]: 6 nM
- IC50 [2]: 160 nM

SMILES: CC(C)(NC(=O)c1c(CN2CCC(N3CCCCC3)CC2)c(-c2cccc(C(F)(F)F)c2)nc2ccccc12)c1ccccc1
- IC50 [1]: 40 nM
- IC50 [2]: 1000 nM

SMILES: Cc1ccc(-c2nc3ccccc3c(C(=O)N[C@@H](C)c3ccccc3)c2CN2CCC(N3CCCCC3)CC2)cc1
- IC50 [1]: 100 nM
- IC50 [2]: 1580 nM

SMILES: C[C@H](NC(=O)c1c(CN2CCC(N3CCNCC3)CC2)c(-c2cccc(C(F)(F)F)c2)nc2ccccc12)c1ccccc1
- IC50 [1]: 790 nM
- IC50 [2]: 3160 nM
